SMILES strings stand for the structures.

We go through 18 molecules from ChEMBL document CHEMBL1681755, “Antiviral agents 3. Discovery of a novel small molecule non-nucleoside inhibitor of hepatitis B virus (HBV)” (Bioorg Med Chem Lett, 2011).

The subject of experiment [1] is Hepatitis B virus. As to the kind of experiment: Antiviral activity against Hepatitis B virus infected in human HepG2(2.2.15) cells assessed as reduction in viral DNA by Southern blotting. In kind it is functional, organism-based.
Experiment [2] in a line: Cytotoxicity against human HepG2(2.2.15) cells by neutral red dye uptake assay. In kind it is functional.
The next experiment relates to Huh-7. Nature of the experiment: Cytotoxicity against human HuH7 cells after 4 days by neutral red dye uptake assay. In kind it is functional. The note with it: Huh-7, 96 h.
For experiment [3], the system named is Hepatitis B virus. Nature of the experiment: Antiviral activity against Hepatitis B virus infected in human HepG2 cells assessed as reduction in viral DNA after 3 days by Southern blotting. In kind it is functional, organism-based. As to conditions: HepG2, 72 h.
A further experiment relates to HepG2. Nature of the experiment: Cytotoxicity against human HepG2 cells after 3 days by neutral red dye uptake assay. As to conditions: HepG2, 72 h. The class given is functional.
In experiment [4] the test system is Hepatitis B virus. Nature of the experiment: Antiviral activity against Hepatitis B virus infected in human Huh7 cells assessed as reduction in viral DNA after 4 days by Southern blotting. As to conditions: Huh-7, 96 h.

What is called EC50 is the concentration that produces a half-maximal response. By CC50 is commonly meant the concentration that lowers cell viability or growth by half. Low readings indicate harm at low concentration, high ones better tolerance by the cells. With `CC1(C)C=Cc2c(ccc3c2C(=O)C(O)=C(C2=C(C4=C(O)C(=O)c5c(ccc6c5C=CC(C)(C)O6)C4=O)C(=O)c4ccccc4C2=O)C3=O)O1`, in the experiment with Hepatitis B virus [1], the 50% effective concentration (EC50) is 10 µM. In experiment [2], this molecule yielded a CC50 of 1370 µM.
In the same order, the values of `COc1ccc2c(c1)C(=O)C(C1=C(O)C(=O)c3c(ccc4c3C=CC(C)(C)O4)C1=O)=C(C1=C(O)C(=O)c3c(ccc4c3C=CC(C)(C)O4)C1=O)C2=O` are 1.5 µM and 466 µM.
In the same order, the values of `CC(C)Oc1ccc2c(c1)C(=O)C(C1=C(O)C(=O)c3c(ccc4c3C=CC(C)(C)O4)C1=O)=C(C1=C(O)C(=O)c3c(ccc4c3C=CC(C)(C)O4)C1=O)C2=O` are 0.154 µM and > 300 µM.
`CC1(C)C=Cc2c(ccc3c2C(=O)C(O)=C(C2=C(C4=C(O)C(=O)c5c(ccc6c5C=CC(C)(C)O6)C4=O)C(=O)c4c(ccc5c4C=CC(C)(C)O5)C2=O)C3=O)O1`: the concentration for a half-maximal effect (EC50) in the experiment with Hepatitis B virus [1] was 7.9 µM. The molecule also yielded a CC50 in experiment [2] of 45 µM.
Regarding `CC1(C)CCc2c(ccc3c2C(=O)C(O)=C(C2=C(C4=C(O)C(=O)c5c(ccc6c5CCC(C)(C)O6)C4=O)C(=O)c4c(ccc5c4CCC(C)(C)O5)C2=O)C3=O)O1`, the EC50 in the experiment with Hepatitis B virus [1] turned out to be 0.096 µM. The same molecule returned a half-maximal cytotoxic concentration (CC50) in experiment [2] of 44 µM.
The corresponding values for `CC1(C)C=Cc2c(ccc3c2C(=O)C(O)=C(C2=C(C4=C(O)C(=O)c5c(ccc6c5C=CC(C)(C)O6)C4=O)C(=O)c4c(ccc5c4CCC(C)(C)O5)C2=O)C3=O)O1` are 0.009 µM and 279 µM.
In the case of `COc1cccc2c1C(=O)C(C1=C(C3=C(O)C(=O)c4cccc(OC)c4C3=O)C(=O)c3ccccc3C1=O)=C(O)C2=O`, the concentration for a half-maximal effect (EC50) in the experiment with Hepatitis B virus [1] was > 10 µM. Also, the CC50 in experiment [2] is > 300 µM.
The corresponding values for `COc1ccc2c(c1)C(=O)C(O)=C(C1=C(C3=C(O)C(=O)c4cc(OC)ccc4C3=O)C(=O)c3ccccc3C1=O)C2=O` are 0.05 µM and 58 µM.
The corresponding values for `COc1cc2c(cc1OC)C(=O)C(C1=C(C3=C(O)C(=O)c4cc(OC)c(OC)cc4C3=O)C(=O)c3ccccc3C1=O)=C(O)C2=O` are 0.4 µM and > 300 µM.
The corresponding values for `O=C1C(O)=C(C2=C(C3=C(O)C(=O)c4ccccc4C3=O)C(=O)c3ccccc3C2=O)C(=O)c2ccccc21` are > 10 µM and > 300 µM.
With `CC(C)=CCC[C@]1(C)C=Cc2c(ccc3c2C(=O)C(O)=C(C2=C(C4=C(O)C(=O)c5c(ccc6c5C=C[C@@](C)(CCC=C(C)C)O6)C4=O)C(=O)c4ccccc4C2=O)C3=O)O1`, in the experiment on Hepatitis B virus [1], the EC50 was > 10 µM. This molecule also returned a half-maximal cytotoxic concentration (CC50) in experiment [2] of 14 µM.
The corresponding values for `CC1(C)CCc2c(ccc3c2C(=O)C(O)=C(C2=C(C4=C(O)C(=O)c5c(ccc6c5CCC(C)(C)O6)C4=O)C(=O)c4ccccc4C2=O)C3=O)O1` are 3.9 µM and 1430 µM.
The corresponding values for `COc1ccc2c(c1)C(=O)C(C1=C(C3=C(O)C(=O)c4ccc(OC)cc4C3=O)C(=O)c3ccccc3C1=O)=C(O)C2=O` are 56 µM and 295 µM.
In the same order, the values of `COc1ccc2c(c1)C(=O)C(O)=C(C1=C(C3=C(O)C(=O)c4cc(OC)ccc4C3=O)C(=O)c3c(ccc4c3CCC(C)(C)O4)C1=O)C2=O` are 0.66 µM and > 300 µM.
For `CC1(C)C=Cc2c(ccc3c2C(=O)C=C(O)C3=O)O1`, the concentration giving a half-maximal response (EC50) with Hepatitis B virus [1] turned out to be 4.3 µM; with Hepatitis B virus [3] it was 1.9 µM; in the experiment with Hepatitis B virus [4] it was 2.5 µM. For the same molecule, the CC50 in experiment [2] is > 300 µM; with Huh-7 it was > 25 µM; with HepG2, > 25 µM.
Consider `CC(C)=CCC[C@]1(C)C=Cc2c(ccc3c2C(=O)C(O)=C(C2=C(C4=C(O)C(=O)c5c(ccc6c5C=C[C@@](C)(CCC=C(C)C)O6)C4=O)C(=O)c4c(ccc5c4C=C[C@@](C)(CCC=C(C)C)O5)C2=O)C3=O)O1` [CONOCURVONE], for which the EC50 in the experiment with Hepatitis B virus [1] was > 10 µM. In addition, in experiment [2], the CC50 is > 100 µM.
On to `Nc1ccn([C@@H]2CS[C@H](CO)O2)c(=O)n1` [LAMIVUDINE], for which the 50% effective concentration (EC50) in the experiment on Hepatitis B virus [1] was 0.06 µM; with Hepatitis B virus [3], > 2.5 µM; in the experiment on Hepatitis B virus [4] it was 0.1 µM. In addition, the CC50 in experiment [2] is 2130 µM; in the experiment with Huh-7, 0.1 µM; with HepG2 it was > 25 µM.
As to `Nc1nc(O)c2ncn(CCC(CO)CO)c2n1` [PENCICLOVIR], in the experiment on Hepatitis B virus [1], the half-maximal effective concentration (EC50) is 3.4 µM. For the same molecule, in experiment [2], the CC50 stood at 552 µM.
